Measurements reported in patent US12042507B2, “Compositions and methods of modulating HIF-2A to improve muscle generation and repair” (University of Georgia Research Foundation, Inc., priority 2017, dated 2024).
“Also recorded” adds a separate entry of the source.

Key:
C2Cl2 myoblasts = assay: RT-qPCR of HIF-2α and Spry1 mRNA in C2Cl2 myoblasts; assay type: cell-based
Method: C2Cl2 myoblasts were transfected with pCMEGIP-HIF2αTM or control empty pCMEGIP plasmids using TransIT-X2 (Mirus Bio.). To differentiate C2Cl2 myoblasts, cells were cultured to reach 80% confluency and further cultured in DMEM (4.5 g/L glucose) medium supplemented with 2% horse serum for 5 days.
For measure relative expression levels, total RNA was isolated from C2Cl2 myoblasts using TRIzol or from FACS sorted satellite cells using PicoPure RNA Isolation Kit (Thermo Fisher Scientific). 1 μg total RNA from C2Cl2 myoblasts (or 0.2 μg total RNA from satellite cells) was used in 20 μl reverse transcription reactions (Maxima; Life technologies) and diluted into 100 μl. 2 μl diluted cDNA was used in 8 μl quantitative PCR reactions (SsoAdvanced™ Universal SYBR Green mix; Bio-Rad) on a BioRad CFX384™ Real-Time PCR Detection System. Cq-values were determined and expression values were calculated by BioRad CFX Manager™ Software. Relative expression values were normalized to inner reference genes Rps18 and Tbp of each biological sample. The following primers were used for quantifying expression levels: […]

HIF-2 = settings: living cells; cited from earlier work
HIF-2α PAS-B = HIF-2α PAS-B (Homo sapiens, UniProt Q99814); settings: binds within the internal cavity of HIF-2α PAS-B; cited from earlier work
Chain of HIF-2α PAS-B (Q99814 240-350 limits assumed): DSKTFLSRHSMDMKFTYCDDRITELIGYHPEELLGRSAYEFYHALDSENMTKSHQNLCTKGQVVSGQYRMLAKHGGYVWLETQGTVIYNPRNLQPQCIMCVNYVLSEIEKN

CTX-injured TA muscles = assay: Muscle regeneration after CTX-induced injury, intramuscular HIF-c2; settings: for total number of Pax7+ SCs per TA muscle section: vs DMSO
Method: To induce Cre activity in mice with the Pax7^cre/ERT2 allele, tamoxifen (20 mg/ml in corn oil) was intraperitoneally administrated for 3 consecutive days (100 mg/Kg/day). To assess myofiber damage, 1% Evan's blue (4 ml/Kg in saline) was intraperitoneally administrated 1 day before the euthanasia. To trace proliferative cells, EdU (50 mg/Kg in DMSO) was intraperitoneally administrated 1 day before the euthanasia. For CTX-induced muscle injury, CTX (0.5 nmol in saline) was injected into TA muscle.
For staining muscle sections, muscle sections were fixed with 2% paraformaldehyde (PFA)/PBS for 10 mins, quenched with 50 mM glycine for 10 mins, permeabilized with 0.5% Triton X-100 for 10 mins. To reduce background fluorescence due to endogenous mouse IgG, Mouse on Mouse (M.O.M.) Blocking Reagent (Vector Lab) was used according to the manufactures' instruction. Muscle sections were blocked in 5% BSA/5% normal goat serum in PBS for 1 hr and incubated with primary antibodies: anti-Pax7 (1:5; DSHB), anti-HIF-2α (1:250; Novus Bio.), anti-HIF-1α (1:250; Novus Bio.), anti-Ki67 (1:1,000; Abcam), anti-Laminin B2 (1:1,000; Milipore), anti-embryonic MyHC (1:50, DSHB), anti-MyHC type I, IIA, or IIB (1:50, DSHB) overnight at 4° C. For EdU staining, Click-iT EdU Fluorescence Kit (Life technologies) was used according to the manufactures' instruction before the application of primary antibodies. Muscle sections were washed in PBS with 0.1% Tween-20, incubated with Alexa Fluor dye-labeled secondary antibodies at room temperature for 1 hr and washed. Sections were mounted with DAPI-containing mounting medium (Life technologies).
Peak isometric torque of the ankle dorsiflexors (tibialis anterior, extensor digitorum longus and extensor hallicus longus muscles) was assessed in vivo as previously described (47). Briefly, mice were anaesthetized with 1.75% isoflurane mixed with oxygen. The left hindlimb was depilated and aseptically prepared before the foot was placed into a foot plate attached to a servomoter (Model 300C-LR; Aurora Scientific, Aurora, Ontario, Canada). Two Pt-Ir electrode needles (Model E2-12; Grass Technologies, West Warwick, RI, USA) were inserted percutaneously on either side of the peroneal nerve. The ankle joint was secured at a 90° angle and body temperature was maintained at 37° C. throughout functional testing. Peak isometric torque was achieved by varying the current delivered to the peroneal nerve at a frequency of 200 Hz and a 0.1-ms square wave pulse. Torques (Nomm) were normalized by the body mass (kg^−1) to account for differences in body size among mice. Following peak isometric torque measurements, the dorsiflexors were subject to 100 electronically stimulated eccentric contractions in order to induce injury. During each contraction the foot was passively moved from the 0° position (perpendicular to tibia) to 20° of dorsiflexion. The dorsiflexors were stimulated at 200 Hz for a 100-ms isometric contraction followed by an additional 50 ms of stimulation while moving from 20° dorsiflexion to 20° plantarflexion at an angular velocity of 800°/s. Eccentric contractions were repeated every 10 seconds and the entire protocol lasted about […].
Muscle sections were stained with Sirius red solution (0.1% in picric acid) for 15 mins, washed with 1% acetic acid for 3 times. Sections were mounted with Cytoseal™ 60 mounting medium (Thermo Fisher Scientific), followed with imaging.
To investigate effects of HIF-2α inhibition on muscle regeneration, HIF-c2 or the carrier solution (1% DMSO) was administered into CTX-injured TA muscles of C57BL/6 mice (daily injections between 1-5 dpi; FIG. 5A). EdU was administrated in the same mice to trace cell proliferation.

[1] = molecular target: full-length HIF-2 transcription factor (Homo sapiens, UniProt Q99814); settings: cited from earlier work
Chain of full-length HIF-2 transcription factor (Q99814 whole entry): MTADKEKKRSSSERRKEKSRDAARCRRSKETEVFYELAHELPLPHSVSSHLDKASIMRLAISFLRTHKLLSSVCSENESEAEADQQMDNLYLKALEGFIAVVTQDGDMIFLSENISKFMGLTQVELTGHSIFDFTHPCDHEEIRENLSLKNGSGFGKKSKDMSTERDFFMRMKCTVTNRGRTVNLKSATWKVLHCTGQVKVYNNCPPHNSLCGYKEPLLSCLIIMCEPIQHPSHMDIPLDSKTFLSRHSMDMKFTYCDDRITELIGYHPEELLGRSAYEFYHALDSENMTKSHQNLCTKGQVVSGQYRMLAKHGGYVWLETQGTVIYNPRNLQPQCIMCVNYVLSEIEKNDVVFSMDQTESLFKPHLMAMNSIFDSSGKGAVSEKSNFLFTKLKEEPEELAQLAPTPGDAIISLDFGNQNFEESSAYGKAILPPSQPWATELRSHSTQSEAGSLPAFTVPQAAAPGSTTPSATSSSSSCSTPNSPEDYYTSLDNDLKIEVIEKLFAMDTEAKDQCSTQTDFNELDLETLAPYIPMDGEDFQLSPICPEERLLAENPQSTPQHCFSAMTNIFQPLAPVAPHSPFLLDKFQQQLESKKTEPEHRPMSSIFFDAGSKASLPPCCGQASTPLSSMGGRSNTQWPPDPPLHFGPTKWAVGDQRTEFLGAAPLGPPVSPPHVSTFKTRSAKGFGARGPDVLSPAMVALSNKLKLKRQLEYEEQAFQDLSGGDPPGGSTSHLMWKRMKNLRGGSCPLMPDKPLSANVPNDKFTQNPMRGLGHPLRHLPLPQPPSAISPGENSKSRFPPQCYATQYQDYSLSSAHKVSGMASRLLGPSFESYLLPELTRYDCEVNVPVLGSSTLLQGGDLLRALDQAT

[2] = system: tibialis anterior (TA) muscles of mTR/Mdx mice; assay: Intramuscular HIF-C2 in dystrophic TA muscle of mTR/Mdx mice; assay type: in vivo
Method: To reveal the potential therapeutic effects of HIF-2α inhibition on muscular dystrophy, the HIF-2α inhibitor HIF-C2 was intramuscularly injected (5 mg/injection; total 3 doses on day 1, day 4, and day 7) into tibialis anterior (TA) muscles of mTR/Mdx mice (2nd generation; males: n=3 and females: n=3; 16-week old). The contralateral TA muscles received vehicle (0.1% DMSO) injections followed the same injection regime. HIF-C2 and vehicle-treated TA muscles were collected for histological examinations at 28 days after the first treatment.
To investigate whether HIF-C2 improves satellite cell function in mTR/Mdx mice, Pax7 (the definitive marker of satellite cells) and Ki67 (a proliferation marker) immunostaining were carried out on muscle cross-sections and the number of Pax7+pos cells (total number of satellite cells) and Pax7+pos/Ki67+pos cells (proliferative satellite cells) per muscle section were enumerated.
Muscle fibrosis is one of the characteristic pathological changes of Duchenne muscular dystrophy (Klingler et al., Acta Myol 31, 184-195 (2012)). […] Thus, Masson's trichrome staining was performed to reveal the amount of collagen in endomysium.

HIF-1 = HIF-1 (Homo sapiens, UniProt Q16665); settings: selectivity for the HIF-2 isoform; cited from earlier work
Chain of HIF-1 (Q16665 whole entry, canonical isoform): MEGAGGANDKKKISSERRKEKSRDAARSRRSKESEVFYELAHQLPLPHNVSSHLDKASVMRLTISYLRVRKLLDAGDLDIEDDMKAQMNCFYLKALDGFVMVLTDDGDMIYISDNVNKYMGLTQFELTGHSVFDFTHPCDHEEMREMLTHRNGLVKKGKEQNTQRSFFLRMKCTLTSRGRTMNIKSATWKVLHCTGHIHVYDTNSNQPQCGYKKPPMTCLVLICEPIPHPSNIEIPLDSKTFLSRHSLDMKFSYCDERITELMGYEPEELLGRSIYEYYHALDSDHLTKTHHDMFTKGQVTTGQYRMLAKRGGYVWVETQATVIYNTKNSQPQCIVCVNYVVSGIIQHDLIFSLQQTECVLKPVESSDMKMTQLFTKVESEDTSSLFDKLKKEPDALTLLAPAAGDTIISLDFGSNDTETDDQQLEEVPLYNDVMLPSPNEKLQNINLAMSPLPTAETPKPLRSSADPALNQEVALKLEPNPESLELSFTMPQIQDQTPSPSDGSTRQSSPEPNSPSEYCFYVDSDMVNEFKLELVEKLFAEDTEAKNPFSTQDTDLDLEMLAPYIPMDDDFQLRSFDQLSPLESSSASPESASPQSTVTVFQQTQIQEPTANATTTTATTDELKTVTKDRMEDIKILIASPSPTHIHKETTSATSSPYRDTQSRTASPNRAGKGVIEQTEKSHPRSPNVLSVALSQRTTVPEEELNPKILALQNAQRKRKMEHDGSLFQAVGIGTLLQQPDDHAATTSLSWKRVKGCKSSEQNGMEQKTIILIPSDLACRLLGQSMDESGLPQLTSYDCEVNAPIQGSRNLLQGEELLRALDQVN

[3] = system: CTX-injured tibialis anterior (TA) muscles of hypoxia-exposed mice; assay: Muscle regeneration after CTX injury under eubaric hypoxia; assay type: in vivo, wildtype B6 mice; settings: hypoxia 17% pO2, 10 dpi
Method: To gain insights on hypoxic effect on muscle regeneration, wildtype B6 mice (12-week old) were treated with eubaric hypoxia (17% pO2, 1 atm) in hypoxia chamber for 4 weeks and injected with CTX (0.5 nmol, 100 μL) into tibialis anterior (TA) muscles at day 18. Mice under normoxia (21% pO2, 1 atm) were injured with CTX as a control.
To assess if HIF-2α inhibition benefits regeneration under experimental hypoxia, HIF-2α inhibitor HIF-C2 (5 mg in 0.1% DMSO) or vehicle (0.1% DMSO) were intramuscularly administered to the injured muscles at days 2, 3 and 4 post-injury (2-4 dpi).

[4] = system: clear cell renal cell carcinoma (ccRCC); settings: patients with ccRCC; cited from earlier work
mouse xenograft models = settings: cited from earlier work
[5] = system: HIF-2α target genes in tumor cells; settings: cited from earlier work
HIF-1a = settings: cited from earlier work
HIF-2α = settings: cited from earlier work
[6] = shRNA expression in C2Cl2 myoblasts

O=[N+]([O-])c1c(Nc2cc(F)cc(Cl)c2)ccc2nonc12 [HIF-C2, N-(3-chloro-5-fluorophenyl)-4-nitrobenzo[c][1,2,5]oxadiazol-5-amine]
HIF-2α mRNA level (C2Cl2 myoblasts; HIF-c2 100 μM, C2Cl2 myoblasts): unchanged
Spry1 mRNA level (C2Cl2 myoblasts; HIF-c2 100 μM, C2Cl2 myoblasts): decreased; also recorded: reduced
HIF-2 DNA binding and transcription of its target genes (HIF-2): disrupting HIF-2 DNA binding and inhibiting the transcription of its target genes
Kd (HIF-2α PAS-B): 81 nM
Pax7+/EdU+ activated SCs per TA muscle section (CTX-injured TA muscles; 3 dpi, vs 1% DMSO carrier): increased
expression of HIF-2α in treated muscle (CTX-injured TA muscles; 7 dpi): reduced
expression of MyoD in treated muscle (CTX-injured TA muscles; 7 dpi): reduced
expression of eMyHC in treated muscle (CTX-injured TA muscles; 7 dpi): reduced
myofiber regeneration (CTX-injured TA muscles; 7 dpi): improved
recovery of the maximal torque measured before injury (CTX-injured TA muscles; 7 dpi, n=6, peroneal nerve stimulation): ~53%
total number of Pax7+ SCs per TA muscle section (CTX-injured TA muscles; 7 dpi): increased
total number of Pax7+ SCs per TA muscle section (CTX-injured TA muscles; 10 dpi): increased
fibrosis (Sirius red staining for collagen) (CTX-injured TA muscles; 30 dpi): no overt sign of fibrosis
myofiber cross sectional areas (CTX-injured TA muscles; 30 dpi): increased
numbers of Pax7+ SCs vs control muscles (CTX-injured TA muscles; 30 dpi): comparable numbers
recovery of the strength (maximal torque) (CTX-injured TA muscles; 30 dpi, n=3): ~90%
HIF-2α expression in muscle (including SCs) (CTX-injured TA muscles; intramuscular, 5 mg/injection/day, 3 consecutive days): reduced HIF-2α expression
heterodimerization of the full-length HIF-2 transcription factor [1]: disrupts heterodimerization
total number of satellite cells (Pax7+pos) per muscle section ([2]; female mTR/Mdx mice): elevated
number of proliferative satellite cells (Pax7+pos/Ki67+pos) ([2]; female mTR/Mdx mice, 28 days post-treatment, vs control): comparable
number of centralized nuclei in a myofiber ([2]; male mTR/Mdx mice): increased
number of proliferative satellite cells (Pax7+pos/Ki67+pos) ([2]; male mTR/Mdx mice): significantly increased
total number of satellite cells (Pax7+pos) per muscle section ([2]; male mTR/Mdx mice): significantly increased
myofiber cross-sectional area (CSA), ImageJ analysis ([2]; males and females, 28 days after first treatment): increase of myofiber caliber
myofiber size (H&E staining) ([2]; males and females, 28 days after first treatment, 5 mg/injection x3, vs vehicle): larger myofibers
amount of collagen in endomysial space (Masson's trichrome staining) ([2]; vs vehicle-treated control muscles): remarkably reduced
activity to antagonize HIF-1 (HIF-1): no activity to antagonize HIF-1
muscle regeneration under hypoxia [3]: improved
percentage of Ki67+ proliferating satellite cells [3]: improved satellite cell proliferation under hypoxia to a level better than the normoxic condition
MuSC (Pax7+) number ([3]; 5 mg i.m. at 2-4 dpi, vs vehicle): increased

CS(=O)(=O)c1ccc(Oc2cc(F)cc(C#N)c2)c2c1[C@H](O)C(F)(F)C2 [PT2385]
clinical activity [4]: demonstrated clinical activity

CS(=O)(=O)c1ccc(Oc2cc(F)cc(C#N)c2)c2c1[C@H](O)[C@H](F)[C@@H]2F [PT2977]
tumor regression (mouse xenograft models): induced regression
expression of HIF-2α target genes [5]: inhibited

O=C(CCCCCCC(=O)Nc1ccccc1)NO [Vorinostat]
reversal of epigenetic silencing of HIF-1a (HIF-1a): not HIF-1a
reversal of epigenetic silencing of HIF-2α (HIF-2α): can reverse the epigenetic silencing of HIF-2α

B1: HIF-2α shRNA #1: For HIF-2α knockdown, HIF-2α shRNA oligos ... cloned into pMSCV-P2GM retrovirus plasmids; HIF-2α shRNA #1 oligo (SEQ ID NO: 18) (nucleic acid)
DNA: TGCTGTTGACAGTGAGCGAACACTTGATGTGGAAACGTATTAGTGAAGCCACAGATGTAATACGTTTCCACATCAAGTGTGTGCCTACTGCCTCGGA
HIF-2α mRNA level (C2Cl2 myoblasts; [6]): reduced
Spry1 mRNA level (C2Cl2 myoblasts; [6]): reduced
